The record followed here is patent US7166634B2, “Bis-indole pyrroles useful as antimicrobials agents” (Nereus Pharmaceuticals, Inc., priority 2004, dated 2007).

Common to all, as to experiment: MIC, broth microdilution (NCCLS M7-A5)
Common to all, as to format: cell-based
(In general: Dilution methods test growth across graded concentrations, often in twofold steps.)

For test [1], the system named is S. epidermidis - ATCC 700578. More on the design: Staph Epi 700578 MIC: unit not given here. Conditions: for MIC: S. epidermidis - ATCC 700578, Table 3. The protocol: (§1) Minimum inhibitory concentrations (MICs) are determined according to the National Committee for Clinical Laboratory Standards (NCCLS) susceptibility test guideline M7-A5 (Ferraro, M. 2001 Methods for Dilution Antimicrobial Susceptibility Tests for Bacteria that Grow Aerobically; Approved Standard (NCCLS). National Committee for Clinical Laboratory Standards (NCCLS), Villanova) to quantify the antimicrobial activity of the compounds of the present embodiment against various pathogenic bacteria. Susceptibility testing is performed by broth microdilution in accordance with National Committee for Clinical Laboratory Standards (NCCLS) guidelines. This procedure entails combining the test compounds with a standardized number of cells, incubating at the temperature and amount of time appropriate for each particular organism, and visually scoring the concentration at which no growth was apparent in the test wells. The panel includes both drug sensitive and drug resistant isolates of both gram-positive and gram-negative bacteria, including: S. aureus (both MSSA and MRSA), S. pneumoniae (wild type and penicillin-resistant), vancomycin-sensitive E. faecalis, vancomycin-resistant E. faecium, E. coli, H. influenzae and P. aeruginosa.
(§2) Susceptibility testing was performed by broth microdilution in accordance with National Committee for Clinical Laboratory Standards (NCCLS) guidelines. Antimicrobial data for compounds of Formulae II, III, IV, VI, VII, VIII, IX, XII, XIII, XIV, XV′, XV, XVI, XVII, XVIII, XXI′, XXII, XXIII, XXIV, and XXV are shown in Tables 3, 4 and 5.

The test system of test [2] is S. epidermidis - ATCC 700582. Further details: Staph Epi 700582 MIC: unit not given here. The settings on record: for MIC: S. epidermidis - ATCC 700582, Table 3. The method, then:
as §1, §2

A further test deals with E. coli - ATCC 25922. Conditions: Table 3. The method, then: as §1, §2
In the next test the test system is E. coli - imp. The settings on record: for MIC: E. coli - imp, Table 3. The protocol:
as §1, §2

Test [3] relates to E. faecium - Van^r (VRE 700221). Conditions: for MIC: E. faecium - Van^r, Table 3. The method, then: as §1, §2
The test system of test [4] is H. influenzae - ATCC 49247. The settings on record: for MIC: H. influenzae - ATCC 49247, Table 3. The method, then: as §1, §2
Test [5] deals with H. influenzae - ATCC 49766. Conditions: for MIC: H. influenzae - ATCC 49766, Table 3. The method, then: as §1, §2
The test system of another test is S. aureus - MRSA (43300). Conditions: for MIC: S. aureus - MRSA, Table 3. The protocol: as §1, §2
The subject of another test is S. aureus - MSSA (29213). The settings on record: for MIC: S. aureus - MSSA, Table 3. The protocol: as §1, §2
The test system of test [6] is S. pneumoniae - penicillin resistant (51915). The settings on record: for MIC: S. pneumoniae - penicillin resistant, Table 3. The method, then: as §1, §2
Test [7] has as its system S. pneumoniae - penicillin sensitive (49619). The settings on record: for MIC: S. pneumoniae - penicillin sensitive, Table 3. The protocol: as §1, §2
Test [8] deals with E. faecalis - Van^s (VSE 29212). More on the design: VSE 29212 MIC: unit not given here. Conditions: for MIC: E. faecalis - Van^s, Table 3. The protocol:
as §1, §2

Setting [9] is: Table 4, averages of 2 experiments, * single experiment, both values given when differing >2 fold.
The mark [10] stands for this setting: Table 4, averages of 2 experiments, * single experiment, both values given when differing >2 fold, in µg/mL.
Where [11] appears, read: Table 4 (MIC), averages of 2 experiments, * single experiment, both values given when differing >2 fold.

Converted amounts (≈) assume the structure as drawn.

As for `COC(=O)c1[nH]cc(-c2c[nH]c3ccc(Cl)cc23)c1-c1c[nH]c2ccc(Cl)cc12` [III], the MIC in [1] is 4 µg/mL (≈ 9.43 µM); in test [2], 4 µg/mL (≈ 9.43 µM); against E. coli - ATCC 25922, more than 32 µg/mL; with E. coli - imp, 16 µg/mL (≈ 37.7 µM); in test [3] it was 8 µg/mL (≈ 18.9 µM); in test [4], 16 µg/mL (≈ 37.7 µM). The MIC is 12 µg/mL (≈ 28.3 µM) in [5]; 2 µg/mL (≈ 4.71 µM) against S. aureus - MRSA (43300); 1.8 µg/mL (≈ 4.24 µM) with S. aureus - MSSA (29213); 24 µg/mL (≈ 56.6 µM) in [6]; 24 µg/mL (≈ 56.6 µM) in [7]; 8 µg/mL (≈ 18.9 µM) in test [8].

`COC(=O)c1[nH]cc(-c2c[nH]c3cc(Cl)c(Cl)cc23)c1-c1c[nH]c2ccc(Cl)cc12` [II]: the MIC in test [1] is 1 µg/mL (≈ 2.18 µM); in test [2], 1 µg/mL (≈ 2.18 µM); in the test with E. coli - ATCC 25922, more than 32 µg/mL; with E. coli - imp it was 6 µg/mL (≈ 13.1 µM); in [3], 2 µg/mL (≈ 4.36 µM); in test [4], 2 µg/mL (≈ 4.36 µM). In addition, the MIC in [5] stood at 6 µg/mL (≈ 13.1 µM); in the test with S. aureus - MRSA (43300), 1 µg/mL (≈ 2.18 µM); in the test on S. aureus - MSSA (29213), 0.8 µg/mL (≈ 1.74 µM); in [6], 8 µg/mL (≈ 17.4 µM); in test [7], 8 µg/mL (≈ 17.4 µM); in [8], 1.5 µg/mL (≈ 3.27 µM).

Take `Clc1cc2[nH]cc(-c3c[nH]cc3-c3c[nH]c4cc(Cl)c(Cl)cc34)c2cc1Cl` [IV]: the MIC in [1] is 1 µg/mL (≈ 2.3 µM); in test [2], 1 µg/mL (≈ 2.3 µM); in the test on E. coli - ATCC 25922, more than 32 µg/mL; in the test on E. coli - imp it was 6 µg/mL (≈ 13.8 µM); in test [3] it was 2 µg/mL (≈ 4.6 µM); in test [4], 4 µg/mL (≈ 9.19 µM). The MIC in [5] was determined as 6 µg/mL (≈ 13.8 µM); with S. aureus - MRSA (43300), 1.5 µg/mL (≈ 3.45 µM); against S. aureus - MSSA (29213), 1.1 µg/mL (≈ 2.53 µM); in test [6], 20 µg/mL (≈ 46 µM); in test [7], 20 µg/mL (≈ 46 µM); in test [8] it was 2.5 µg/mL (≈ 5.75 µM).

For the molecule `COC(=O)c1[nH]c(C(=O)OC)c(-c2c[nH]c3ccc(Cl)cc23)c1-c1c[nH]c2ccc(Cl)cc12` [VI], the MIC in [1] is 4 µg/mL (≈ 8.29 µM); in [2], 4 µg/mL (≈ 8.29 µM); with E. coli - ATCC 25922 it was more than 32 µg/mL; against E. coli - imp, more than 32 µg/mL; in [3] it was 8 µg/mL (≈ 16.6 µM); in test [4], 5 µg/mL (≈ 10.4 µM). Further, the MIC in [5] was found to be 8 µg/mL (≈ 16.6 µM); against S. aureus - MRSA (43300) it was 3 µg/mL (≈ 6.22 µM); against S. aureus - MSSA (29213), 3 µg/mL (≈ 6.22 µM); in test [6], 20 µg/mL (≈ 41.5 µM); in [7] it was 24 µg/mL (≈ 49.8 µM); in test [8], 8 µg/mL (≈ 16.6 µM).

Consider `COC(=O)c1[nH]c(C(=O)OC)c(-c2c[nH]c3cc(F)ccc23)c1-c1c[nH]c2ccccc12` [XXV], for which the “Staph Epi 700578 MIC” value in [1] (setting [9]) is given as 8*. Further, the “Staph Epi 700582 MIC” value in [2] (setting [9]) is recorded as 8*. For the same molecule, the “E. coli imp MIC” value in the test with E. coli - imp (Table 5) was more than 32 µg/mL. Further, in [3] (setting [10]), the “VRE 700221 MIC” value is >32*. Besides, the “H. inf. 49247” value in test [4] (setting [11]) was 8*. Besides, in test [5] (setting [11]), the “H. inf. 49766” value was 16*. The “MRSA 43300 MIC” value in the test with S. aureus - MRSA (43300) (setting [10]) was 8*. Further, the “MSSA 29213 MIC” value in the test with S. aureus - MSSA (29213) (setting [10]) is given as 4*. Besides, in [6] (setting [10]), the “S. pneumo 51915 Pen R MIC” value was >32*. Also, the “S. pneumo 49619 Pen. S MIC” value in test [7] (setting [10]) is reported as 32*. Besides, the “VSE 29212 MIC” value in [8] (setting [9]) is on record as >32*.
